Test results reported in US7491794B2, “Macrocyclic compounds as inhibitors of viral replication” (Intermune, Inc., priority 2003, dated 2009).

Key:
[1] = from 1R-{[1-(2S-tert-Butoxycarbonylamino-non-8-enoyl)-4R-hydroxy-pyrrolidine-2S-carbonyl]-amino}-2S-vinyl-cyclopropanecarboxylic acid ethyl ester; rcm bond; 15-membered ring; Hoveyda catalyst (0.25 equiv); DCE; 10.0 mM; 50.0 °C
[2] = from C=CCCCCC[C@H](NC(=O)OC(C)(C)C)C(=O)N1C[C@H](O)C[C@H]1C(=O)N[C@]1(C(=O)OCC)C[C@H]1C=C; rcm bond; Hoveyda catalyst; DCE; 10.0 mM; 50.0 °C; 16.0 h
[3] = Dog hepatocyte incubation assay (stability in vitro); type: in vitro ADME; settings: dog hepatocytes
[4] = Human hepatocyte incubation assay (stability in vitro); type: in vitro ADME; settings: human hepatocytes
Cytochrome P450 isoforms = assay: Inhibition of Cytochrome P450 isoforms; type: in vitro ADME; settings: highest concentrations tested (10 μM)
[5] = Rat hepatocyte incubation assay (stability in vitro); type: in vitro ADME; settings: rat hepatocytes
[6] = system: panel of other serine proteases; assay: Selectivity against a panel of other serine proteases; type: biochemical
[7] = system: HCV sub-genomic replicon, GS4.3; assay: Quantitation by ELISA of NPTII in the HCV sub-genomic replicon, GS4.3, Section B; type: cell-based; settings: Hepatitis C virus; read-out: replicon EC50 value
Outline: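 NPTII marker protein in lysates was quantified by ELISA read at 450 nm after 72 h inhibitor exposure (3-fold series, final DMSO 1%, G418-free medium) of HuH-7 cells stably harbouring the subgenomic HCV replicon. Values relative to DMSO-treated controls; 4-parameter curves gave EC50.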

hERG channel = hERG channel (Homo sapiens, UniProt Q12809); assay: Inhibition of hERG channel activity; settings: highest concentrations tested (10 μM)
Sequence of hERG channel (Q12809 whole entry): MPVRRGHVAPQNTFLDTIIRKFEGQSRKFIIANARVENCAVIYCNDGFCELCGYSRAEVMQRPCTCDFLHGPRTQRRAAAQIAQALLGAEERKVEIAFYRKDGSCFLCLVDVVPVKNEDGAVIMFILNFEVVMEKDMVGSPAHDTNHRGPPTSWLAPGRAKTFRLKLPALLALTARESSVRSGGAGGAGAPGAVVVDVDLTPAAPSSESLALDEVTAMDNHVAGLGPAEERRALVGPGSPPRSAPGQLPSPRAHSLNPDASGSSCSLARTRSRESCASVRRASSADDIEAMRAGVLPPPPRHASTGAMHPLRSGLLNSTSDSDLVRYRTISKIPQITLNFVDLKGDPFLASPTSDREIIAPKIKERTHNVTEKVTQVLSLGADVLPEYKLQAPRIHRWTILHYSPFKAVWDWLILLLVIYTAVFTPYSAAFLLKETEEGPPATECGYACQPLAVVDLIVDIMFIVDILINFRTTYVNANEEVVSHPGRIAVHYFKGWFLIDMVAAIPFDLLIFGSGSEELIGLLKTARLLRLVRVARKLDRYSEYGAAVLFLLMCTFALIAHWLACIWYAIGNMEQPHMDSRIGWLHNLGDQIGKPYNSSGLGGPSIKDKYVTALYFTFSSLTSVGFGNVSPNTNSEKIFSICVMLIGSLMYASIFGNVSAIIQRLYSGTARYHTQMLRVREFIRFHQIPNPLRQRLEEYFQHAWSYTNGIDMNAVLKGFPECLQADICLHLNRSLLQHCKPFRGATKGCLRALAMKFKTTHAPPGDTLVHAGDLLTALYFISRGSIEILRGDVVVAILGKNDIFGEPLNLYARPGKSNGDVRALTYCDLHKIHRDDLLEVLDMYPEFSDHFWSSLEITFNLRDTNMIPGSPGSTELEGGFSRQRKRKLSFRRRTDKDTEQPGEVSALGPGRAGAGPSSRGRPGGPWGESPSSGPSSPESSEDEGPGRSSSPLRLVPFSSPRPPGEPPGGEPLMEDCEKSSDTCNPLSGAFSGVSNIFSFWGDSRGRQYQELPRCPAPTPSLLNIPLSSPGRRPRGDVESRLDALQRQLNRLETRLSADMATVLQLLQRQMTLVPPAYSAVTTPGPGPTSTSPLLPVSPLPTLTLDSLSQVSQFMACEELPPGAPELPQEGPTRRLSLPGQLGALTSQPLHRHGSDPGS

[8] = Toxicological assessment in rats, up to 30 mg/kg orally BID for seven days; settings: Rattus sp.
[9] = in vivo, po
Experimental: (§1) Compounds were initially synthesized and tested for potency (IC50) in a fluorogenic NS3/4 protease assay and cell-based HCV replicon system as described in Example 8 above. […] These leads were then further optimized for drug-like physical properties and administered in oral doses in Rattus sp. to assess liver, heart and plasma concentrations.
Compounds were tested for liver clearance over time following a single 3 mg/kg oral dose in rats.
as §1, with “described” for “described in Example 8”

Compound | ring closure, isolated yield [1] | ring closure, yield of all isomers [2] | stability in vitro in dog hepatocyte incubation assay [3] | stability in vitro in human hepatocyte incubation assay [4] | inhibition of Cytochrome P450 isoforms (Cytochrome P450 isoforms) | stability in vitro in rat hepatocyte incubation assay [5] | selectivity against a panel of other serine proteases [6] | EC50 [7] | inhibition of hERG channel activity (hERG channel) | safety margin above the presumptive efficacious dose (3 mg/kg) ([8]; 30 mg/kg BID for seven days vs 3 mg/kg) | mortality, change in weight, abnormalities in clinical chemistries ([8]; 30 mg/kg orally BID for 7 days) | toxicity ([8]; dosed for seven days at 30 mg/kg BID) | heart levels relative to liver concentrations in the same animals [9] | plasma levels relative to liver concentrations in the same animals [9]
CCOC(=O)[C@@]12C[C@H]1C=CCCCCC[C@H](NC(=O)OC(C)(C)C)C(=O)N1C[C@H](O)C[C@H]1C(=O)N2 | 52% | 26% | – | – | – | – | – | – | – | – | – | – | – | –
CC(C)(C)OC(=O)N[C@H]1CCCCC/C=C\[C@@H]2C[C@@]2(C(=O)NS(=O)(=O)C2CC2)NC(=O)[C@@H]2C[C@@H](OC(=O)N3CCc4ccccc4C3)CN2C1=O [AR261408] | – | – | exhibited stability | exhibited stability | no significant inhibition | exhibited stability | high degree of selectivity | ~2 nM | no significant inhibition | – | – | – | – | –
CC(C)(C)OC(=O)N[C@H]1CCCCC/C=C\[C@@H]2C[C@@]2(C(=O)NS(=O)(=O)C2CC2)NC(=O)[C@@H]2C[C@@H](OC(=O)N3Cc4ccccc4C3)CN2C1=O [AR294381] | – | – | exhibited stability | exhibited stability | no significant inhibition | exhibited stability | high degree of selectivity | ~2 nM | no significant inhibition | – | – | – | – | –
CC(C)(C)OC(=O)N[C@H]1CCCCCCC[C@@H]2C[C@@]2(C(=O)NS(=O)(=O)C2CC2)NC(=O)[C@@H]2C[C@@H](OC(=O)N3Cc4ccccc4C3)CN2C1=O [AR333833] | – | – | exhibited stability | exhibited stability | no significant inhibition | exhibited stability | high degree of selectivity | ~2 nM | no significant inhibition | – | – | – | – | –
CC(C)(C)OC(=O)N[C@H]1CCCCC/C=C\[C@@H]2C[C@@]2(C(=O)NS(=O)(=O)C2CC2)NC(=O)[C@@H]2C[C@@H](OC(=O)N3Cc4cccc(F)c4C3)CN2C1=O [AR334191] | – | – | exhibited stability | exhibited stability | no significant inhibition | exhibited stability | high degree of selectivity | ~2 nM | no significant inhibition | ≥ 10 fold | no mortality, change in weight, or abnormalities in clinical chemistries were observed | did not display toxicity | up to two orders of magnitude lower | up to two orders of magnitude lower
